In patent publication US5218089A, “Retro-inverso analogues of thymopentin and the method for their synthesis” (Sclavo S.p.A., priority 1988, dated 1993):

Columns and labels:
[1] = Stability towards enzymatic hydrolysis in heparinized human plasma; settings: 37° C., about 30 nmoles/ml of plasma
in vitro = settings: human, heparinized human plasma
[2] = test system: lymphocytes which secrete antibodies (PFC); assay: Hemolysis plaque (PFC) test of Jerne and Nordin in SRBC-immunized mice; type: in vivo, C3H/HeNCr1Br inbred male mice; settings: 1 ng of peptide orally 2 hours after SRBC i.v., spleen lymphocytes after 4 days, IgM PFC
Description: Specifically, hemolysis plates (PFC) were used for the test, which was conducted by the method described by Jerne and Nordin. The test was carried out by intravenously administering to C3H/HeNCr1Br inbred male mice (Calco-Italia) of 10-12 weeks and about 25 g body weight an apyrogenic saline solution (0.2 ml) containing 1-2×10^8 red blood cells from sheep (SRBC). After two hours, groups each containing 3 mice were treated orally (intragastric tube) with 0.2 ml of saline solution (control) or with 0.2 ml of saline solution containing 1 ng of peptide. After 4 days the mice were killed and the spleen withdrawn and dissociated mechanically to separate the lymphocytes. The thus isolated lymphocytes were washed with minimum essential medium (MEM) (3×15 ml) containing Earle's salts and then resuspended in the same medium (1 ml) at a final concentration of 150,000 cells. Each cell suspension (0.1 ml) was then diluted 1:100 with MEM, 100 μl of each dilution being doubly added to microplate wells containing 25 μl of MEM, 25 μl of a 10% solution of SRBC antigens and 25 μl of guinea pig complement at a final dilution of 1:64. The entire suspension was immediately transferred by capillarity from each well to superimposed slides. […]
At the end of this period the direct hemolysis plaques indicating the number of lymphocytes which secrete antibodies (PFC) are counted by a light contrast viewer.

[3] = action of various proteases; cited from earlier work

| Stability towards enzymatic hydrolysis in human plasma (t/2 in minutes) [1] | half-life (in vitro) [min] | Compound | Plaque formation % control [2] [% control] | t1/2 in the plasma [3] [min] |
| --- | --- | --- | --- | --- |
| > 300 min | > 300 | CC(C)C(C(=O)N[C@H](CC(=O)O)NC(=O)C(CCCCN)C(=O)N[C@@H](N)CCCNC(=N)N)C(=O)N[C@@H](Cc1ccc(O)cc1)C(=O)O (some centres unmarked) [Example 1] | – | – |
| 22 min | 22 | CC(C)[C@H](NC(=O)[C@H](CC(=O)O)NC(=O)C(CCCCN)C(=O)N[C@@H](N)CCCNC(=N)N)C(=O)N[C@@H](Cc1ccc(O)cc1)C(=O)O (some centres unmarked) | 112 | – |

| Compound | Stability towards enzymatic hydrolysis in human plasma (t/2 in minutes) [1] | half-life (in vitro) [min] | Plaque formation % control [2] [% control] | t1/2 in the plasma [3] [min] |
| --- | --- | --- | --- | --- |
| H-RKDVY-OH [TP5, H-Arg-Lys-Asp-Val-Tyr-OH] | ≈ 1.5 minutes | – | 104 | 1.5 |
